{"source": "patent US8686045B2", "about": "(priority 2005, dated 2014)", "key": {"[1]": {"system": "E16-17 hippocampal neurons", "assay": "Aβ oligomer-induced neuronal degeneration (Alzheimer's disease model)", "format": "cell-based, mouse", "description": "Neuronal cell survival in culture medium (CM) and with the addition of 10 μM AβScrambled oligomer are shown in the two bars on the left-hand side of the graph […]. Cells were also treated with 10 μM Aβ1-42 alone or in combination with NGF (100 ng/mL), NGF mimetic LM11A-31 (100 nM), a combination of NGF and LM11A-31, Compound 4 (BD2-4, 500 nM), Compound 24 (BD2-24, 500 nM), or either 20 or 100 ng/mL BDNF, as indicated under each bar. […] Mean+SE are shown and ***p<0.001 for survival above CM baseline.\nThe ability of the BDNF mimetics to prevent Aβ-induced neuronal degeneration was tested as a model of the compounds' ability to treat Alzheimer's disease. E16-17 hippocampal neurons were matured for 6 days and then incubated for 3 days with the indicated combinations of Aβ oligomer preparations (Dahigren, K. N., et al. (2002) J Biol Chem 277, 32046-32053), neurotrophins and neurotrophin mimetics. Following the three day incubation, neuronal survival was assessed using standard morphological criteria (Massa, S. M., et al. (2006) J Neurosci 26, 5288-5300.)."}, "[2]": {"system": "human SH-SY5Y neuroblastoma cells", "from_the_text": "Exposure of SH-SY5Y cells to 1-methyl-4-phenylpyridinium (MPP^+) with resulting cell death is a well-characterized model of Parkinson's disease (PD). […] BDNF has also been previously shown to protect dopaminergic neurons. Further, MPP^+ causes a PD-like condition in primates.\nFor the Parkinson's disease model assays, human SH-SY5Y cells were used after terminal differentiation into a dopaminergic phenotype (Presgraves. S. P., et al. (2004) Exp Neruol 190, 157-170). Human SH-SY5Y neuroblastoma cells were propagated to confluence in Dulbecco's Modified Eagle's media (DMEM) supplemented with 10% fetal calf serum, 100 μg/mL penicillin, 100 μg/mL streptomycin, 0.25 μg/mL amphotericin B, and […] non-essential amino acids and then sub-cultured for differentiation. For differentiation, the cells were incubated in same media containing 10 μM retinoic acid for 3 days; then the media was removed and replaced with media containing 160 nM of the phorbol ester 12-O-tetradecanoyl-phorbol-13-acetate (TPA) for 3 days of differentiation. The cells were then administered a range dose of BD2-4 or BDNF (1×10^−12 M to […]) in DMEM for 30 mins for three days prior to addition of 100 μM MPP^+. Following transfer of MPP^+ to the media, sister cultures were tested at 6, 12, 24, and 48 hrs for the cytotoxicity of MPP^+ as measured by the MTT and lactate dehydrogenase method (LDH) assays which accurately measure different aspects of cell death. In addition, the neuroprotective effects of a fixed dose of BD2-4 and BDNF on MPP^+ induced cell death were tested for in the presence and absence of TrkB inhibitor K252a (200 nM)."}, "[3]": {"system": "E16 mouse hippocampal neurons", "assay": "Hippocampal neuron survival (morphology plus MTT conversion, 48 h)", "format": "cell-based", "conditions": "for EC50 / Emax: Mus musculus, Hippocampal neuron, 48 h; for EC50: read-out: EC50 of neuron survival dose-response; for Emax: read-out: intrinsic activity", "description": "FIGS. 3A-3E are a series of neuron survival dose response curves of BDNF (FIG. 3A), Compound 1 (also referred to as BD2-1, FIG. 3B) Compound 2 (also referred to as BD2-2, FIG. 3C), Compound 3 (also referred to as BD2-3, FIG. 3D), and Compound 4 (also referred to as BD2-4, FIG. 3E) using Mouse E16 hippocampal neurons. Survival was determined as the total number of cells in each well that were both morphologically intact and filled with blue formazan MTT conversion product (Longo, F. M., Manthorpe, M. Xie, Y. M., and Varon, S. (1997) J Neurosci Res. 48, 1-17). Counts were normalized to survival achieved with 25 ng/mL BDNF. Survival was assessed at 48 hrs.\nHippocampal neurons were prepared from E16-17 mouse embryos as previously described (Yang, T. et al. (2003) J Neurosci 23, 3353-3363). Low density cultures were initiated in poly-L-lysine coated A/2 plates by adding 25 μl of cell suspension (2000 neurons/well; 12,500 cells/cm^2), 25 μl of DMEM containing 10% FBS, and different concentrations of recombinant BDNF, NGF, or TrkB-binding compounds to each well.\nAfter 48 hours in culture, cell survival was assessed as previously described (Longo, F. M., Manthorpe, M., Xie, Y. M., Varon, S. (1997) J Neurosci Res 48, 1-17) using a combination of standard morphological criteria along with visual determination of whether a given cell converted MTT to its blue formazan product. Briefly, the number of surviving neurons was determined by counting the total number of cells in each well that were both morphologically intact and filed with blue product (Longo F. M., Manthorpe. M., Xie, Y. M. Varon, S. (1997) J Neurosci Res 48, 1-17). For each neurotrophin or compound concentration, duplicate wells were counted and the resulting values averaged. […] Counts were normalized to survival achieved with 25 ng/ml BDNF or to baseline survival. Fitting of dose-responsive curves was performed with SIGMAPLOT™ obtained from SYSTAT Software Inc. (Richmond, Calif., United States of America).\nIn order to understand the mechanisms of action of the BDNF loop 2 mimetics and to test the conjecture that they work via the targeted receptor, TrkB, the dose-dependent relationships of the survival-promoting activities of the mimetics was compared to BDNF using embryonic hippocampal neurons in culture conditions in which BDNF promotes neural survival. In the cultures, neurotrophic activity was mediated by BDNF principally through TrkB and p75^NTR, as they express little TrkA (Brann, A. B., et al. (1999) J Neurosci 19, 8199-8206; Bui, N. T., et al. (2002) J Neurochem 81, 594-605)."}, "[4]": {"system": "mouse E16 striatal neurons", "quoted_text": "Bars indicate mean±s.e.m.\nCM represents culture medium and QUIN represents quinolinic acid. Bars indicate mean±s.e.m and *** indicates p<0.005 student t test.\nThe K252a inhibitor is a well-characterized inhibitor of TrkB receptor activation."}, "[5]": {"target": "T1, TrkB (Homo sapiens, UniProt Q16620)", "T1 construct": "expressed in transfected cells; host or cells: NIH3T3", "T1 sequence (Q16620 32-822, species assumed)": "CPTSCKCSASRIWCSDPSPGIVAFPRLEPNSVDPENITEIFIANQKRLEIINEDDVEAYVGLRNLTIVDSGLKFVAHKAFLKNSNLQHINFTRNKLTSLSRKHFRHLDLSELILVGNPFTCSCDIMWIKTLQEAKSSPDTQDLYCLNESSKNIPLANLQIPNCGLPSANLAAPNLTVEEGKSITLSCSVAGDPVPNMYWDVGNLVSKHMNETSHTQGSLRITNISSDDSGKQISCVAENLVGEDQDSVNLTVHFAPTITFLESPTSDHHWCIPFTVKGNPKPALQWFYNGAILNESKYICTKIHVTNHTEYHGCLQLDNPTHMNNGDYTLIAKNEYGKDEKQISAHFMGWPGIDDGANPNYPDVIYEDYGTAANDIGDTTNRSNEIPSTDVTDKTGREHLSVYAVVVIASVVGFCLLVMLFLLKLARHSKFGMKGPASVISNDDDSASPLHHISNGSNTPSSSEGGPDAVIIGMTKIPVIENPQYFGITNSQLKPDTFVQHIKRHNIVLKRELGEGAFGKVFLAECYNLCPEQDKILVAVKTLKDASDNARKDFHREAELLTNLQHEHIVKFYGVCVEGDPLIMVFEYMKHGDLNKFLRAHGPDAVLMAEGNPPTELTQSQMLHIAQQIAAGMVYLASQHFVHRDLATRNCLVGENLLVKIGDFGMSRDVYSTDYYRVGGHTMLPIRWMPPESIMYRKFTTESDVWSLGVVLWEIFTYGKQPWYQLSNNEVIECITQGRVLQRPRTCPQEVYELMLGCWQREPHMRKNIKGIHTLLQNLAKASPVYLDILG", "assay": "Trk phosphorylation at Y490, Western blot, NIH3T3 cells expressing TrkB", "format": "cell-based", "description": "(§1) CM represents culture medium.\n(§2) Western blots were performed as described previously (Yang, T. et al. (2003) J Neurosci 23, 3353-3363). Western blot signals were detected using the ECL Chemiluminescence System obtained by Amersham (Piscataway, N.J., United States of America) (Yang, T. et al. (2003) J Neurosci 23, 3353-3363). To detect the presence of anti-Trk antibodies, blots were probed with horseradish peroxidase-linked goat anti-rabbit IgG obtained from Amersham/Pharmacia Biotech (Piscataway, N.J., United States of America). Signals were detected by the ECL chemiluminescence system obtained from Amersham Biosciences (Piscataway, N.J., United States of America). To control for variation in protein loading, the blot was stripped and reprobed with β-actin monoclonal antibody obtained from Sigma (St. Louis, Mo., United States of America).\n(§3) In order to assess the interactions of the BDNF loop 2 mimetic compounds with TrkB receptors, the ability of Compound 4 to activate TrkA, TrkB, and TrkC was compared in a series of Western blotting experiments.\n(§4) In the bottom two panels of FIG. 5A, NIH3T3 cells expressing TrkA were used."}, "[6]": {"target": "T2, TrkA (Homo sapiens, UniProt P04629)", "T2 construct": "expressed in transfected cells; host or cells: NIH3T3", "T2 sequence (P04629 33-796, species assumed)": "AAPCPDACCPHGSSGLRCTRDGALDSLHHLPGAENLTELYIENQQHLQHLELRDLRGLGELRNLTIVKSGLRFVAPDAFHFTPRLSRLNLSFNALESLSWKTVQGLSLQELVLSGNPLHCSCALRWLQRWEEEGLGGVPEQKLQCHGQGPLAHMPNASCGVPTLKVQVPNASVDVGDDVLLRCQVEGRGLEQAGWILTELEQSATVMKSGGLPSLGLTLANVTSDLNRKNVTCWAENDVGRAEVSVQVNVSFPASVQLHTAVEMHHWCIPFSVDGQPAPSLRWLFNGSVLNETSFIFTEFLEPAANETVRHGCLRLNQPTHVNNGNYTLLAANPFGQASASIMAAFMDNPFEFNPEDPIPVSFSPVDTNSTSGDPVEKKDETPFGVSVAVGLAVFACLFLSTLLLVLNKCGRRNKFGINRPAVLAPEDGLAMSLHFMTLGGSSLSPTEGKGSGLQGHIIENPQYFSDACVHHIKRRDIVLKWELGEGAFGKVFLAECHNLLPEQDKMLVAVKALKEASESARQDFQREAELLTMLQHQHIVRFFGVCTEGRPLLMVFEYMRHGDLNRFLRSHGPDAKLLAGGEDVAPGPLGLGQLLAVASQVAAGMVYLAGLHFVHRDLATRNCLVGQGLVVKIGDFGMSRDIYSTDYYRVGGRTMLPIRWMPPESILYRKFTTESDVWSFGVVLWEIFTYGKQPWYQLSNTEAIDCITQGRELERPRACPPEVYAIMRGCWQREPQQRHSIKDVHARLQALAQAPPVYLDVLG", "assay": "Trk phosphorylation at Y490, Western blot, NIH3T3 cells expressing TrkA", "format": "cell-based", "description": "as §1, §2, §3, §4"}, "[7]": {"target": "T3, TrkC (Homo sapiens, UniProt Q16288)", "T3 construct": "expressed in transfected cells; host or cells: NIH3T3", "T3 sequence (Q16288 32-839, species assumed)": "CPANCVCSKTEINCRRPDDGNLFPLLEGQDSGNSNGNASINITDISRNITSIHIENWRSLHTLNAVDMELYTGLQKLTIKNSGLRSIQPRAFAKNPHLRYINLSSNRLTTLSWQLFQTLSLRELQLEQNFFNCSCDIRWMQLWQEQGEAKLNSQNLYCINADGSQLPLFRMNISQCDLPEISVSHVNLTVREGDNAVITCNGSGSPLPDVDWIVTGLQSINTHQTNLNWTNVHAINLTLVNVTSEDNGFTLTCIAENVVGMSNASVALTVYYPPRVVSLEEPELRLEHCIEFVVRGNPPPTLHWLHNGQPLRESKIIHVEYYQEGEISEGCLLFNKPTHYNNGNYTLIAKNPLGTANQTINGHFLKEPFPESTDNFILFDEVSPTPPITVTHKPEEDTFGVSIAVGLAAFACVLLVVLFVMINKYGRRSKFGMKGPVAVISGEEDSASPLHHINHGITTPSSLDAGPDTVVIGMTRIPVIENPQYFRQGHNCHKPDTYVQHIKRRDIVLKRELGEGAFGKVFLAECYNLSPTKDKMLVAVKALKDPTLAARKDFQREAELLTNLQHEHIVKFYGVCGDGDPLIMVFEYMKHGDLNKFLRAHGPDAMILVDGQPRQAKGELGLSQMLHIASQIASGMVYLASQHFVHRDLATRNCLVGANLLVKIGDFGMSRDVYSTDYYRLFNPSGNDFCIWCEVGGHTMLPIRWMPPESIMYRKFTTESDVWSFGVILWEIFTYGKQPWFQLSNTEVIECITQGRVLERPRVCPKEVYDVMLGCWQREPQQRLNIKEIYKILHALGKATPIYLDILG", "assay": "Trk phosphorylation at Y490, Western blot, NIH3T3 cells expressing TrkC", "format": "cell-based", "description": "FIG. 5B is a digital composite image of Western blots monitoring TrkC activation as indicated by promotion of Trk phosphorylation at Y490 in NIH3T3 cells expressing TrkC. […] CM represents culture medium.\nas §2, §3\nIn FIG. 5B, NIH3T3 cells expressing TrkC were used. The bottom panel indicates the total amount of TrkC present by probing with anti-TrkC antibodies."}, "[8]": {"system": "DARP32-positive neurons", "assay": "Quinolinic acid-induced death, DARP32-positive neurons only", "format": "cell-based, mouse", "description": "FIG. 6C is a bar graph of the results of a study similar to that described for FIG. 6B only using Darp32-positive neurons.\nA study similar to the one shown in FIG. 6B was conducted in which only DARP32-positive neurons were assessed. DARP32-positive neurons represent the population within the striatum that are particularly vulnerable in HD."}, "[9]": {"system": "E16 mouse hippocampal neurons", "assay": "Hippocampal neuron survival (morphology plus MTT conversion, 48 h)", "format": "cell-based", "conditions": "in the presence of a maximally effective BDNF concentration (50 ng/mL)"}}, "note": "Entries after “also recorded” stand apart in the source; their conditions may differ. Where a SMILES comes first, the peptide text is derived from it. [ ]: non-standard residue; d: D form. pGlu = O=C1CC[CH](C(=O)O)N1"}
{"compound": "COc1ccc(-c2csc(N/N=C/c3ccc(O)cc3O)n2)cc1", "note": "[Compound 24]", "values": [{"measurement": "blocking of Aβ-induced degeneration", "setting": "[1]", "result": "as effective as BDNF in blocking Aβ-induced degeneration"}]}
{"compound": "C[n+]1ccc(-c2ccccc2)cc1", "note": "[MPP^+, 1-methyl-4-phenylpyridinium]", "values": [{"measurement": "cell death, toxin alone", "setting": "[2]; MPP+ 100 μM", "result": "promotes death of essentially all cells"}]}
{"compound": "CC(=O)Nc1ccc(/C=C(\\C#N)c2nn(CCO)c(N)c2C#N)cc1", "note": "[Compound 3]", "values": [{"measurement": "EC50", "setting": "[3]", "result": "0.1 to 1", "unit": "nM"}, {"measurement": "Emax", "setting": "[3]", "result": "50 to 200", "unit": "%"}]}
{"compound": "O=C(O)c1cccnc1C(=O)O", "note": "[quinolinic acid]", "values": [{"measurement": "death of neurons", "setting": "[4]; quinolinic acid at 7.5 mM versus culture medium alone", "result": "approximately 50%"}]}
{"compound": "NC(=O)NN=C1c2cc(S(=O)(=O)NCCO)ccc2-c2ccc(S(=O)(=O)NCCO)cc21", "note": "[Compound 2]", "values": [{"measurement": "EC50", "setting": "[3]", "result": "0.1 to 1", "unit": "nM"}, {"measurement": "Emax", "setting": "[3]", "result": "50 to 200", "unit": "%"}]}
{"compound": "COC(=O)C(Cc1c[nH]c2ccccc12)NC(=O)C(Cc1c[nH]cn1)NC(=O)C1CCC(=O)N1", "note": "(stereo not drawn) [Compound 1] ([pGlu]-His-Trp-OMe; configuration not given here)", "values": [{"measurement": "EC50", "setting": "[3]", "result": "0.1 to 1", "unit": "nM"}, {"measurement": "Emax", "setting": "[3]", "result": "50 to 200", "unit": "%"}]}
{"compound": "O=C(NCCO)c1cc(C(=O)NCCO)cc(C(=O)NCCO)c1", "note": "[Compound 4]", "values": [{"measurement": "prevention of death of hippocampal neurons / neurotrophic effect", "setting": "[3]; E16 hippocampal neurons", "result": "neurotrophic effects similar to that of BDNF; also recorded: prevents the death of E16 hippocampal neurons"}, {"measurement": "EC50", "setting": "[3]", "result": "0.1 to 1", "unit": "nM"}, {"measurement": "Emax", "setting": "[3]", "result": "50 to 200", "unit": "%"}, {"measurement": "TrkB activation (Trk phosphorylation at Y490)", "setting": "[5]", "result": "activate TrkB"}, {"measurement": "TrkA activation (Trk phosphorylation at Y490)", "setting": "[6]", "result": "not TrkA; also recorded: do not"}, {"measurement": "TrkC activation (Trk phosphorylation at Y490)", "setting": "[7]", "result": "do not activate TrkC"}, {"measurement": "protection of DARP32-positive neurons", "setting": "[8]; quinolinic acid-induced death", "result": "protects DARP32-positive neurons with an efficacy similar to that of BDNF"}, {"measurement": "block of death-inducing activity of MPP+", "setting": "[2]; MPP+ 100 μM", "result": "significantly blocked to a similar extent"}, {"measurement": "blocking of Aβ-induced degeneration", "setting": "[1]", "result": "as effective as BDNF in blocking Aβ-induced degeneration"}, {"measurement": "effect on BDNF activity (partial agonism)", "setting": "[9]", "result": "partial agonist of BDNF; also recorded: causes an inhibition of BDNF activity"}]}
{"compound": "COC(=O)[C@@]1(O)C[C@H]2O[C@]1(C)n1c3ccccc3c3c4c(c5c6ccccc6n2c5c31)C(=O)NC4", "note": "[Compound K252a]", "values": [{"measurement": "effect of K252a on prevention of cell death by BDNF and BD2-4", "setting": "[8]; DARP32-positive neurons", "result": "decreased the ability of BDNF and BD2-4 to prevent cell death"}, {"measurement": "effect on cell survival, inhibitor alone", "setting": "[2]; K252a (200 nM) versus culture medium alone", "result": "small effect on lowering cell survival"}, {"measurement": "effect of K252a on quinolinic acid-induced death", "setting": "[4]; K252a without BDNF or BD2-4", "result": "no effect on quinolinic acid-induced death"}, {"measurement": "effect of K252a on prevention of death by BDNF and BD2-4", "setting": "[4]; quinolinic acid-treated striatal neurons", "result": "block the ability of BDNF and BD2-4 to prevent death"}]}
{"compound": "CC[C@H](C)[C@H](N)C(=O)NCCN1CCOCC1", "note": "[LM11A-31, reference compound]", "values": [{"measurement": "blocking of Aβ-induced degeneration", "setting": "[1]", "result": "blocked Aβ-induced degeneration"}, {"measurement": "blocking activity in combination with NGF", "setting": "[1]; LM11A-31 100 nM plus NGF 100 ng/mL, 10 μM Aβ1-42", "result": "blocked by NGF"}]}
